According to US6596534B1, “Utilization of osteocalcin promoter to deliver therapeutic genes to tumors” (priority 1997, dated 2003):
“Also recorded” adds a separate entry of the source.

Legend:
[1] = system: ROS 17/2.8 osteosarcoma lung metastases; experiment: Treatment of osteosarcoma pulmonary metastasis by intravenous Ad-OC-TK; format: in vivo, nude mice
Description: Athymic Balb/c (nu/nu) mice at 5 to 6 weeks were purchased from Harlan Co. (Houston, Tex.). […] All mice were maintained in facilities approved by the American Association of Accreditation of Laboratory Animal Care, and all animal studies were conducted in accordance with the principles and procedures outlined in the NIH Guide for the Care and Use of Laboratory Animals.
The osteosarcoma pulmonary metastasis model was established as described above. Ad-OC-TK (5×10^8 PFU per 50 μl) was injected via tail vein twice, at day 7 and 14, after ROS 17/2.8 injection. Daily acyclovir intra peritoneal administration (40 mg/kg body weight) started at day 6 after ROS 17/2.8 tumor cell inoculation and continued for 15 days. All animals were sacrificed and examined on day 25. The lungs were removed, photographed, and weighed, and the metastatic deposits were observed under a low-powered (20×) stereo microscope. Histomorphologic observations were made in all specimens according to a standard procedure. Student's t-test was employed to analyze the statistical significance of differences among control and treatment groups.
We next tested the therapeutic efficacy of intravenous Ad-OC-TK gene therapy for the treatment of osteosarcoma lung metastases. Twenty mice bearing ROS 17/2.8 tumor lung metastases were treated with either PBS (control), Ad-OC-TK alone, ACV alone, or Ad-OC-TK plus ACV. Animals were sacrificed and analyzed on day 25 after ROS 17/2.8 inoculation. Tumor nodules on the lung surface were counted with stereo-optic magnification and the lung wet weights were measured, and all the lung specimens were subjected to histological analysis.

[2] = system: ROS 17/2.8 osteosarcoma lung metastases; experiment: Long term survival study of mice bearing osteosarcoma lung metastases; format: in vivo, nude mice; settings: generalized Wilcoxon test, 0.005<p<0.01 for combination
Description: The end-points of the long term survival study are: animal death or sacrifice upon request by animal care takers because of excessive tumor burden causing animal distress, lethargy, ruffled fur or weight loss. The survival rate of the animals was analyzed by the Kaplan-Meier survival curve. The statistical significance of this study was analyzed with the generalized Wilcoxon test.^18
Twenty-six mice were inoculated with ROS 17/2.8 tumor cells as described above. Animals received either PBS, Ad-OC-TK alone, ACV alone, or Ad-OC-TK plus ACV and survivals were compared. […] Mean survival time was 27.1±2.9 days for the control animals and 36.6±5.8 days for the Ad-OC-TK plus ACV-treated animals (FIG. 6).
FIG. 6. Survival of animals receiving Ad-OC-TK/ACV treatment. Animals bearing osteosarcoma lung metastases were treated with PBS (6 animals), ACV (6 animals), Ad-OC-TK (6 animals), or Ad-OC-TK/ACV (8 animals) as described above. The survival study end-points were animal death or sacrifice per request by animal care personnel for distress, as evidenced by lethargy, ruffled fur or weight loss.

## Nc1nc2c(ncn2COCCO)c(=O)[nH]1 [ACV, acyclovir]
[1]; day 25, compared with PBS-treated specimens
  size of pulmonary metastases (histology): No statistical difference; also recorded: massive pulmonary metastatic tumor nodules
[1]; day 25 after ROS 17/2.8 inoculation, Ad-OC-TK 5×10^8 PFU tail vein day 7 and 14, ACV 40 mg/kg i.p. daily for 15 days, p<0.0001 for combination vs PBS
  number of metastatic tumor nodules on the lung surface: No statistical difference; also recorded: no significant differences
[1]; day 25 after ROS 17/2.8 inoculation, same regimen, p=0.0005 for combination vs PBS
  lung wet weight: no significant differences
[2]
  survival compared with controls: No obvious difference in survival
